Values belong to the compound of their own block, whether it stands above or below them.
Assays:
human HM74a [1] = biological target: T1, human HM74a (Homo sapiens, UniProt Q8TDS4); experiment: cAMP assay; format: cell-based; design: expressed in transfected cells; settings: CHO cells stably transfected with human HM74a; 5 μM forskolin; inhibition relative to DMSO controls
Protocol: CHO cells stably transfected with human HM74a were seeded at 7,500 cells/well in a 96-well plate in HAMS F12 medium with 10% FBS. The plate was incubated overnight at 37° C. and 5% CO2. The test compounds were prepared in a stimulation buffer containing 1×HANKS, 20 mM HEPES, 5 μM forskolin, and 0.25 mM IBMX. The media from the cell plate was removed before adding 30 μL of the test compounds. After 30 minute incubation at 37° C. and 5% CO2, the cAMP level was assayed using HitHunter cAMP XS assay kit (DiscoverX, CA). IC50 determinations were based on compound inhibition relative to DMSO controls.

human HM74a [2] = biological target: T1, human HM74a; experiment: GTPγS recruitment assay; format: biochemical; design: expressed in transfected cells; host or cells: HEK293 (transient transfection; membranes); settings: membranes of HEK293 cells transfected with human HM74a and Gα0; 35S GTPγS
Protocol: Membranes were prepared from HEK293 cells transiently transfected with human HM74a and Gα0 protein. Assays were performed in 384-well format in a volume of 50 μL per assay point. Serial dilutions of compounds were prepared in the assay buffer (20 mM HEPES pH. 7.4, 100 mM NaCl, 10 mM MgCl2, 10 mg/L saponin and 10 μM GDP) and mixed with membranes (2 μg per assay point) and ^35S GTPγS (Amersham, 0.3 nM) in the assay buffer. The mixtures were incubated at room temperature for 30 mM and wheat germ agglutinin SPA beads (Amersham) (0.2 mg per assay point) in the assay buffer were added. After […] incubation with agitation, plates were centrifuged at 1500 g for 5 mM and bound ^35S GTPγS was determined by counting on a TopCount scintillation counter. […] For example, the compound of Example 1 has an EC50 of 80 nM in this assay.

mature adipocytes = experiment: Adipocyte lipolysis assay; format: cell-based; settings: glycerol in supernatant after overnight culture with IBMX (100 μM), relative to DMSO controls
Protocol: Preadipocytes purchased from Zen Bio were plated at 8.7×10 ^4 cells/well in 96-well plates, differentiated for 14 days and mature adipocytes assayed during days 15 through 21. Adipocyte maturation is assessed by the presence of rounded cells with large lipid droplets in the cytoplasm. Following maturation, cells were washed and incubated overnight with IBMX (100 μM) and various concentrations of compound diluted in assay buffer containing a final DMSO concentration of 0.1%. After overnight culture, the glycerol concentration in the supernatants was determined with the Lipolysis Assay Kit purchased from Zen-Bio. Absorbance at 540 nm is directly proportional to the glycerol concentration in the sample. IC50 determinations were based on compound inhibition relative to DMSO controls.

[3] = cited from earlier work

T1 sequence (Q8TDS4 whole entry): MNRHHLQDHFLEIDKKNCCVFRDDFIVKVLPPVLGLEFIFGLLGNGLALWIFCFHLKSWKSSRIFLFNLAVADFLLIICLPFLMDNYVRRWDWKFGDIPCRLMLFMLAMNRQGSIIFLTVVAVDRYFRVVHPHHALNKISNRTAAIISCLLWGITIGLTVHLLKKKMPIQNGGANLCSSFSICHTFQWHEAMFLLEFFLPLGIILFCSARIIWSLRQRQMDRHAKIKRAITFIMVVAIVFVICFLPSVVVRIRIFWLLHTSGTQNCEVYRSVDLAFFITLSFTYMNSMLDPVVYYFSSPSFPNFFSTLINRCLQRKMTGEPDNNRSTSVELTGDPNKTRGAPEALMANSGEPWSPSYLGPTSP

- IC50 (human HM74a [1]): 20 nM
- EC50 (human HM74a [2]): 80 nM
SMILES: CCCCCn1c2nc(C(F)(F)F)[nH]c2c(=O)n2c(C)nnc12 [Example 1, 3-methyl-9-pentyl-7-(trifluoromethyl)-6,9-dihydro-5H-[1,2,4]triazolo[4,3-a]purin-5-one]

- IC50 (mature adipocytes): 37 nM
SMILES: CCCCCn1c2nc(Br)[nH]c2c(=O)n2c(CCc3nc(Cc4ccncc4)no3)nnc12 [Example 77, 7-bromo-9-pentyl-3-{2-[3-(pyridine-4-ylmethyl)-1,2,4-oxadiazol-5-yl]ethyl}-6,9-dihydro-5H-[1,2,4]triazolo[4,3-a]purin-5-one]

SMILES: O=C1[C@H](CC[C@H](O)c2ccc(F)cc2)[C@@H](c2ccc(O)cc2)N1c1ccc(F)cc1 [Ezetimibe]
- maximal LDL reductions ([3]; co-formulated with a statin): exceed 60%
- lowers LDL ([3]; monotherapy): 20%

SMILES: O=C(O)c1cccnc1 [Nicotinic acid, nicotinic acid]
- lowering circulating plasma LDL ([3]; human, in vivo): 16%
- lowering triglycerides ([3]; human, in vivo): 38%
- raising HDL levels ([3]; human, in vivo): 20-30%

From US8703783B2, “Purinone derivatives as HM74A agonists” (Incyte Corporation, priority 2006, dated 2014)
